Test results reported in publication PMC6278664, “Highly Cancer Selective Antiproliferative Activity of Natural Prenylated Flavonoids” (Molecules, 2018).

test system: not given; assay: not given; details: breast tissue study of Bolca and co-workers; cited from earlier work

Compound | Glucuronidation [%]
CC(C)=CCc1c(O)cc(O)c2c1OC(c1ccc(O)cc1)CC2=O (stereo not drawn) [8PN, 8-(3,3-dimethylallyl)-5,7,4′-trihydroxyflavanone] | > 90

test system: MCF7 human breast cancer cell line; assay: SRB antiproliferative assay, MCF7; type: cell-based; details: Homo sapiens, MCF7, 72 h, SRB, 72 h, mean ± SD
Experimental: (§1) We determined the effect of various structural factors in the substrates on the antiproliferative activity against those selected to the study cell lines: the location and/or the presence of the prenyl group, the chalcone/flavanone skeleton and the presence of an O-methyl group at C-5 in flavanones. Flavonoids presented in Figure 1 were tested for the antiproliferative activity towards eight cancer cell lines including estrogen-dependent (MCF7 and T-47D) and two normal ones (HLMEC and MCF 10A). The in vitro antiproliferative activity was measured using SRB assay. The results are presented in Figure 2 (and in the supplement in Table S1). The antiproliferative activity was measured separately for each of the experiments and given as the average IC50 (the concentration of tested compound which inhibits 50% of the cells population). Cisplatin (CP), a common anticancer drug, was used as a positive control.
(§2) The following established in vitro cell lines were applied: MCF7, T-47D, MDA-MB-231 (human breast cancer cell line), A2780 (human ovarian cancer cell line), A2780cis (human cisplatin-resistant ovarian cancer cell line), PC-3 and DU 145 (human prostate cancer cell lines), HT-29 (human colon cancer cell line), HLMEC (human lung microvascular endothelial cell line), and MCF 10A (human mammary epithelial cells line).
(§3) The cell lines: MDA-MB-231, HT-29, PC-3, DU 145, and MCF 10A were obtained from the American Type Culture Collection (Rockville, MD, USA), MCF7, T-47D, A2780, A2780cis from the European Collection Cell Cultures (Sigma-Aldrich, Chemie GmbH, Steinheim, Germany), while the HLMEC cell line was obtained by M. Paprocka from the institute. All cell lines are being maintained in the Institute of Immunology and Experimental Therapy (Wrocław, Poland). DU 145 and MCF7 cells were cultured in Eagle medium (supplemented with 4mM L-glutamine, 10% fetal bovine serum, 1 mM sodium pyruvate for DU 145 cells or 2 mM L-glutamine, 1% mem non-essential amino acid solution and 8 µg/mL insulin and 10% fetal bovine serum for MCF7). […] HT-29 and T-47D cell lines were cultured in RPMI 1640 + OPTI-MEM medium supplemented with 2 mM L-glutamine, 5% fetal bovine serum and 8 µg/mL of insulin (T-47D) or 1 mM sodium pyruvate (HT-29). MDA-MB-231, PC-3 and HLMEC cell lines were cultured in RPMI 1640 medium supplemented with 2 mM L-glutamine and 10% fetal bovine serum. Medium for MCF 10A cell line consisted of F-12 nutrient mixture supplemented with cholera toxin (0.05 µg/mL), insulin (10 µg/mL), hydrocortisone (0.5 µg/mL), 5% horse serum, and EGFH (20 ng/mL). All the culture media contained antibiotics: 100 units/mL penicillin (Polfa Tarchomin SA, Warsaw, Poland), and 100 µg/mL streptomycin (Sigma-Aldrich, Chemie GmbH, Steinheim, Germany). All cell lines were grown at 37 °C with 5% CO2 humidified atmosphere.
(§4) Twenty-four hours before the incubation with the tested compounds, the cells were seeded in 96-plates (Sarstedt, Germany) at a density of 1 × 10^4 cells per well (0.75 × 10^4 per well for MCF7 and 1 × 10^3 per well for HLMEC) in 100 µL of a culture medium.
(§5) Each agent at each concentration (from 0.1 to 100 µg/mL) was tested in a single experiment, which was repeated four to five times. […] Cisplatin was used as a reference drug.
(§6) The results were calculated as the IC50 (inhibitory concentration 50%)—the concentration of the tested compound which inhibits 50% of the cells population. IC50 values were calculated for each experiment separately and mean values ± SD are presented in the Table S1 in the Supplementary Materials. Each compound at each concentration was tested in triplicate in a single experiment, which was repeated four to five times.
(§7) The cells were fixed in situ by gently adding cold 50% trichloroacetic acid (50 µL per well). The plates were incubated at 4 °C for 1h and then washed five times with tap water. […]

Compound | IC50 [µM]
CC(C)=CCc1c(O)cc(O)c2c1OC(c1ccc(O)cc1)CC2=O (stereo not drawn) [8PN, 8-(3,3-dimethylallyl)-5,7,4′-trihydroxyflavanone] | 49.5 ± 7.36

same assay, conditions: IC50 HLMEC / IC50 MCF-7

Compound | Selectivity index SIA, MCF-7
CC(C)=CCc1c(O)cc(O)c2c1OC(c1ccc(O)cc1)CC2=O (stereo not drawn) [8PN, 8-(3,3-dimethylallyl)-5,7,4′-trihydroxyflavanone] | 0.48

same assay, conditions: IC50 MCF-10A / IC50 MCF-7

Compound | Selectivity index SIB, MCF-7
CC(C)=CCc1c(O)cc(O)c2c1OC(c1ccc(O)cc1)CC2=O (stereo not drawn) [8PN, 8-(3,3-dimethylallyl)-5,7,4′-trihydroxyflavanone] | 1.83

test system: MCF 10A human mammary epithelial cells line; assay: SRB antiproliferative assay, MCF 10A (normal); type: cell-based; details: Homo sapiens, MCF-10A, 72 h, mean ± SD, read-out: Normal cell line, IC50, MCF-10A
Experimental: as §1, §2, §3, §4, §5, §6, §7

Compound | IC50 [µM]
CC(C)=CCc1c(O)cc(O)c2c1OC(c1ccc(O)cc1)CC2=O (stereo not drawn) [8PN, 8-(3,3-dimethylallyl)-5,7,4′-trihydroxyflavanone] | 90.7 ± 19.8

test system: A2780 human ovarian cancer cell line; assay: SRB antiproliferative assay, A2780; type: cell-based; details: Homo sapiens, A2780; SRB, 72 h, mean ± SD; read-out: Cancer cell line, IC50, A-2780
Experimental: as §1, §2, §3, §4, §5, §6, §7

Compound | IC50 [µM]
CC(C)=CCc1c(O)cc(O)c2c1OC(c1ccc(O)cc1)CC2=O (stereo not drawn) [8PN, 8-(3,3-dimethylallyl)-5,7,4′-trihydroxyflavanone] | 25.9 ± 8.32

same assay, conditions: IC50 HLMEC / IC50 A-2780

Compound | Selectivity index SIA, A-2780
CC(C)=CCc1c(O)cc(O)c2c1OC(c1ccc(O)cc1)CC2=O (stereo not drawn) [8PN, 8-(3,3-dimethylallyl)-5,7,4′-trihydroxyflavanone] | 0.92

same assay, conditions: IC50 MCF-10A / IC50 A-2780

Compound | Selectivity index SIB, A-2780
CC(C)=CCc1c(O)cc(O)c2c1OC(c1ccc(O)cc1)CC2=O (stereo not drawn) [8PN, 8-(3,3-dimethylallyl)-5,7,4′-trihydroxyflavanone] | 3.50

test system: PC-3 human prostate cancer cell line; assay: SRB antiproliferative assay, PC-3; type: cell-based; details: Homo sapiens; SRB, 72 h, mean ± SD
Experimental: as §1, §2, §3, §4, §5, §6, §7

Compound | IC50 [µM]
CC(C)=CCc1c(O)cc(O)c2c1OC(c1ccc(O)cc1)CC2=O (stereo not drawn) [8PN, 8-(3,3-dimethylallyl)-5,7,4′-trihydroxyflavanone] | 51.4 ± 11.3

same assay, conditions: IC50 HLMEC / IC50 PC-3

Compound | Selectivity index SIA, PC-3
CC(C)=CCc1c(O)cc(O)c2c1OC(c1ccc(O)cc1)CC2=O (stereo not drawn) [8PN, 8-(3,3-dimethylallyl)-5,7,4′-trihydroxyflavanone] | 0.47

same assay, conditions: IC50 MCF-10A / IC50 PC-3

Compound | Selectivity index SIB, PC-3
CC(C)=CCc1c(O)cc(O)c2c1OC(c1ccc(O)cc1)CC2=O (stereo not drawn) [8PN, 8-(3,3-dimethylallyl)-5,7,4′-trihydroxyflavanone] | 1.77

test system: T-47D human breast cancer cell line; assay: SRB antiproliferative assay, T-47D; type: cell-based; details: Homo sapiens, T47D; SRB, 72 h, mean ± SD
Experimental: as §1, §2, §3, §4, §5, §6, §7

Compound | IC50 [µM]
CC(C)=CCc1c(O)cc(O)c2c1OC(c1ccc(O)cc1)CC2=O (stereo not drawn) [8PN, 8-(3,3-dimethylallyl)-5,7,4′-trihydroxyflavanone] | 26.7 ± 9.7

same assay, conditions: IC50 HLMEC / IC50 T-47D

Compound | Selectivity index SIA, T-47D
CC(C)=CCc1c(O)cc(O)c2c1OC(c1ccc(O)cc1)CC2=O (stereo not drawn) [8PN, 8-(3,3-dimethylallyl)-5,7,4′-trihydroxyflavanone] | 0.90

same assay, conditions: IC50 MCF-10A / IC50 T-47D

Compound | Selectivity index SIB, T-47D
CC(C)=CCc1c(O)cc(O)c2c1OC(c1ccc(O)cc1)CC2=O (stereo not drawn) [8PN, 8-(3,3-dimethylallyl)-5,7,4′-trihydroxyflavanone] | 3.40

test system: DU 145 human prostate cancer cell line; assay: SRB antiproliferative assay, DU 145; type: cell-based; details: Homo sapiens, DU-145; SRB, 72 h, mean ± SD
Experimental: as §1, §2, §3, §4, §5, §6, §7

Compound | IC50 [µM]
CC(C)=CCc1c(O)cc(O)c2c1OC(c1ccc(O)cc1)CC2=O (stereo not drawn) [8PN, 8-(3,3-dimethylallyl)-5,7,4′-trihydroxyflavanone] | 60.6 ± 6.66

same assay, conditions: IC50 HLMEC / IC50 Du-145

Compound | Selectivity index SIA, Du-145
CC(C)=CCc1c(O)cc(O)c2c1OC(c1ccc(O)cc1)CC2=O (stereo not drawn) [8PN, 8-(3,3-dimethylallyl)-5,7,4′-trihydroxyflavanone] | 0.39

same assay, conditions: IC50 MCF-10A / IC50 Du-145

Compound | Selectivity index SIB, Du-145
CC(C)=CCc1c(O)cc(O)c2c1OC(c1ccc(O)cc1)CC2=O (stereo not drawn) [8PN, 8-(3,3-dimethylallyl)-5,7,4′-trihydroxyflavanone] | 1.50

test system: HLMEC human lung microvascular endothelial cell line; assay: SRB antiproliferative assay, HLMEC (normal); type: cell-based; details: Homo sapiens, Endothelial cell, 72 h, mean ± SD

Compound | IC50 [µM]
CC(C)=CCc1c(O)cc(O)c2c1OC(c1ccc(O)cc1)CC2=O (stereo not drawn) [8PN, 8-(3,3-dimethylallyl)-5,7,4′-trihydroxyflavanone] | 23.9 ± 10.9

test system: MDA-MB-231 human breast cancer cell line; assay: SRB antiproliferative assay, MDA-MB-231; type: cell-based; details: Homo sapiens, MDA-MB-231; SRB, 72 h, mean ± SD
Experimental: as §1, §2, §3, §4, §5, §6, §7

Compound | IC50 [µM]
CC(C)=CCc1c(O)cc(O)c2c1OC(c1ccc(O)cc1)CC2=O (stereo not drawn) [8PN, 8-(3,3-dimethylallyl)-5,7,4′-trihydroxyflavanone] | 63.8 ± 7.27

same assay, conditions: IC50 HLMEC / IC50 MDA-MB-231

Compound | Selectivity index SIA, MDA-MB-231
CC(C)=CCc1c(O)cc(O)c2c1OC(c1ccc(O)cc1)CC2=O (stereo not drawn) [8PN, 8-(3,3-dimethylallyl)-5,7,4′-trihydroxyflavanone] | 0.37

same assay, conditions: IC50 MCF-10A / IC50 MDA-MB-231

Compound | Selectivity index SIB, MDA-MB-231
CC(C)=CCc1c(O)cc(O)c2c1OC(c1ccc(O)cc1)CC2=O (stereo not drawn) [8PN, 8-(3,3-dimethylallyl)-5,7,4′-trihydroxyflavanone] | 1.42

test system: HT-29 human colon cancer cell line; assay: SRB antiproliferative assay, HT-29; type: cell-based; details: Homo sapiens, HT-29; SRB, 72 h, mean ± SD

Compound | IC50 [µM]
CC(C)=CCc1c(O)cc(O)c2c1OC(c1ccc(O)cc1)CC2=O (stereo not drawn) [8PN, 8-(3,3-dimethylallyl)-5,7,4′-trihydroxyflavanone] | 89.8 ± 3.42

same assay, conditions: IC50 HLMEC / IC50 HT-29

Compound | Selectivity index SIA, HT-29
CC(C)=CCc1c(O)cc(O)c2c1OC(c1ccc(O)cc1)CC2=O (stereo not drawn) [8PN, 8-(3,3-dimethylallyl)-5,7,4′-trihydroxyflavanone] | 0.27

same assay, conditions: IC50 MCF-10A / IC50 HT-29

Compound | Selectivity index SIB, HT-29
CC(C)=CCc1c(O)cc(O)c2c1OC(c1ccc(O)cc1)CC2=O (stereo not drawn) [8PN, 8-(3,3-dimethylallyl)-5,7,4′-trihydroxyflavanone] | 1.00

test system: A2780cis human cisplatin-resistant ovarian cancer cell line; assay: SRB antiproliferative assay, A2780cis; type: cell-based; details: Homo sapiens, A2780cis; SRB, 72 h, mean ± SD; read-out: Cancer cell line, IC50, A-2780cis
Experimental: as §1, §2, §3, §4, §5, §6, §7

Compound | IC50 [µM]
CC(C)=CCc1c(O)cc(O)c2c1OC(c1ccc(O)cc1)CC2=O (stereo not drawn) [8PN, 8-(3,3-dimethylallyl)-5,7,4′-trihydroxyflavanone] | 66.4 ± 10.1

same assay, conditions: IC50 HLMEC / IC50 A-2780cis

Compound | Selectivity index SIA, A-2780cis
CC(C)=CCc1c(O)cc(O)c2c1OC(c1ccc(O)cc1)CC2=O (stereo not drawn) [8PN, 8-(3,3-dimethylallyl)-5,7,4′-trihydroxyflavanone] | 0.36

same assay, conditions: IC50 MCF-10A / IC50 A-2780cis

Compound | Selectivity index SIB, A-2780cis
CC(C)=CCc1c(O)cc(O)c2c1OC(c1ccc(O)cc1)CC2=O (stereo not drawn) [8PN, 8-(3,3-dimethylallyl)-5,7,4′-trihydroxyflavanone] | 1.37
